Measured values published in ChEMBL document CHEMBL5649166, “RIP3 induces apoptosis independent of pronecrotic kinase activity” (Mol Cell, 2014).

What was measured:
[1] = target: Protein kinase C theta type (Homo sapiens) (UniProt Q04759); assay: Residual activity of human PKCtheta using ERMRPRKRQGSVRRRV as substrate at 1 uM in presence of 32P-ATP by Hotspot assay relative to control
[2] = target: RAC-beta serine/threonine-protein kinase (Homo sapiens) (UniProt P31751); assay: Inhibition of human AKT2 using KGSGSGRPRTSSFAEG as substrate at 1 uM in presence of 32P-ATP by Hotspot assay relative to control; values are per cent of control
[3] = target: T1, Dual specificity tyrosine-phosphorylation-regulated kinase 2 (Homo sapiens) (UniProt Q92630); assay: Inhibition of human DYRK2 using RRRFRPASPLRGPPK as substrate at 1 uM in presence of 32P-ATP by Hotspot assay relative to control; values are per cent of control
T1 sequence (whole entry): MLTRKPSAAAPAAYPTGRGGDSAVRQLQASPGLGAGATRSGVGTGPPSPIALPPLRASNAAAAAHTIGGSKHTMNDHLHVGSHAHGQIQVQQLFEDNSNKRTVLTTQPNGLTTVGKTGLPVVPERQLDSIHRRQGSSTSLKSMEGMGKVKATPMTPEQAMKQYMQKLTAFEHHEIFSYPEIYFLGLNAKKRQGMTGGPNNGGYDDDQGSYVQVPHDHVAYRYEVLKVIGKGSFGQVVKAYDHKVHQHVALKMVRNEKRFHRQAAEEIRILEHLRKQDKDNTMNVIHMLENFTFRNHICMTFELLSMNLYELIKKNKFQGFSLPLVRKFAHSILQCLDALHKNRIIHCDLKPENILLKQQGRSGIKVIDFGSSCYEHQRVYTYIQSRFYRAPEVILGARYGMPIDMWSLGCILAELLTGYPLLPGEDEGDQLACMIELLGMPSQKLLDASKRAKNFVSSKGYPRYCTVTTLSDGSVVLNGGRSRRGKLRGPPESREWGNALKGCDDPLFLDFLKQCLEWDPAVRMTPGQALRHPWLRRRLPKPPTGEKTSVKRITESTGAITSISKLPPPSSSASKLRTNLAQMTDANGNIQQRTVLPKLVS

[4] = target: Leukocyte tyrosine kinase receptor (Homo sapiens) (UniProt P29376); assay: Inhibition of human TYK1/LTK using EAIYAAPFAKKK as substrate at 1 uM in presence of 32P-ATP by Hotspot assay relative to control; values are per cent of control
Homo sapiens = species on record: Homo sapiens; assay: Inhibition of human CDK2/cyclin A using RB Protein as substrate at 1 uM in presence of 32P-ATP by Hotspot assay relative to control; values are per cent of control
[5] = target: T2, Ephrin type-B receptor 2 (Homo sapiens) (UniProt P29323); assay: Inhibition of human EPHB2 using poly[Glu:Tyr] (4:1) as substrate at 1 uM in presence of 32P-ATP by Hotspot assay relative to control; values are per cent of control
T2 sequence (whole entry): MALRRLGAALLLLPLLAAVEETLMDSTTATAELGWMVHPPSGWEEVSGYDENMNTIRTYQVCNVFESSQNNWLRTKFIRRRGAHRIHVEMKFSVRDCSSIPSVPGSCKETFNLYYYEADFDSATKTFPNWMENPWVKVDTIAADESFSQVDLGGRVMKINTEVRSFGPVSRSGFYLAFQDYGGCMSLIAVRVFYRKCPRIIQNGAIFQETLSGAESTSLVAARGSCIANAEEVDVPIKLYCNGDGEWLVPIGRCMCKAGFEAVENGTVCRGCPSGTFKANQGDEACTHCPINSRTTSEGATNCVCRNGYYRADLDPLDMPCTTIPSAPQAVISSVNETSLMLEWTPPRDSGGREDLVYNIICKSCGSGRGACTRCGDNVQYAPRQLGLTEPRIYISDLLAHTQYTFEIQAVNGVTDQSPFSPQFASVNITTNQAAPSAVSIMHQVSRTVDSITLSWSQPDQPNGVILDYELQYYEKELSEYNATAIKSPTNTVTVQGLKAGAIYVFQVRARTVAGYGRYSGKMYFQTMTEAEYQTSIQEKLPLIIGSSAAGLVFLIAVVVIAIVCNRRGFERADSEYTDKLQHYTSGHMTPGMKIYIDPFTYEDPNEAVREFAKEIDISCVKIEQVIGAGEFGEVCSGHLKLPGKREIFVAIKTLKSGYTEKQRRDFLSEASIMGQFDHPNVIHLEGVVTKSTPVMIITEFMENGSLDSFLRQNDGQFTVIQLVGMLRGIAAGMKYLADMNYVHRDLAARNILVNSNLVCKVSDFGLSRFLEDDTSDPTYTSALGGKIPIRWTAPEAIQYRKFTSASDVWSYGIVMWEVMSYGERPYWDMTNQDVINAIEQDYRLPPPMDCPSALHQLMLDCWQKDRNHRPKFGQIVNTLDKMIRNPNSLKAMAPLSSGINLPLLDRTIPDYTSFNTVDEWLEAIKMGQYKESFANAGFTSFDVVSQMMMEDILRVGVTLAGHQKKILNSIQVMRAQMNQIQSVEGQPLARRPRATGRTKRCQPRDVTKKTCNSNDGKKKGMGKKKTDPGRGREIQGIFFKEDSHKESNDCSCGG

[6] = target: Mitogen-activated protein kinase kinase kinase kinase 5 (Homo sapiens) (UniProt Q9Y4K4); assay: Inhibition of human KHS/MAP4K5 using myelin basic protein as substrate at 1 uM in presence of 32P-ATP by Hotspot assay relative to control; values are per cent of control
Sequence of Mitogen-activated protein kinase kinase kinase kinase 5 (Homo sapiens) (Q9Y4K4 whole entry, looked up): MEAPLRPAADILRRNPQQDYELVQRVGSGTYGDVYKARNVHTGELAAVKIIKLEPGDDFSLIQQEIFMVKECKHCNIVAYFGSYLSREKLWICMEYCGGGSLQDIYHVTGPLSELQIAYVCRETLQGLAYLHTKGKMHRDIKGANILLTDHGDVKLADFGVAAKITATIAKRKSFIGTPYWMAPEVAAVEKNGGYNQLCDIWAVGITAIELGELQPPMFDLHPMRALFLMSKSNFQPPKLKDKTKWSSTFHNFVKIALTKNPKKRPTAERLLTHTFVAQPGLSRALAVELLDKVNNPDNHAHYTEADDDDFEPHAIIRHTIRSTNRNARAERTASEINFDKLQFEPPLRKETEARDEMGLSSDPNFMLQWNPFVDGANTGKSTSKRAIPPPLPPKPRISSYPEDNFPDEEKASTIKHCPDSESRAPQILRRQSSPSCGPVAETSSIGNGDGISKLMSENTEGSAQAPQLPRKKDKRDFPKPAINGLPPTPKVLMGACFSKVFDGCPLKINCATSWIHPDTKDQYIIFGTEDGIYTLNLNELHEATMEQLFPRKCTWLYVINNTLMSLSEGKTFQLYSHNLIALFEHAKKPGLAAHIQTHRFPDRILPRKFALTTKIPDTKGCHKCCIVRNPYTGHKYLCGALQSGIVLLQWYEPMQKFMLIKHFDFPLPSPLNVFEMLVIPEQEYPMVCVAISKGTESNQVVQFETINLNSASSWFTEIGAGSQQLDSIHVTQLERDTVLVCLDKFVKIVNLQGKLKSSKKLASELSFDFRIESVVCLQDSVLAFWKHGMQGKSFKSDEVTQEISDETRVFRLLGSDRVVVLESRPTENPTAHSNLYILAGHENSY

Sequence of RAC-beta serine/threonine-protein kinase (Homo sapiens) (P31751 whole entry): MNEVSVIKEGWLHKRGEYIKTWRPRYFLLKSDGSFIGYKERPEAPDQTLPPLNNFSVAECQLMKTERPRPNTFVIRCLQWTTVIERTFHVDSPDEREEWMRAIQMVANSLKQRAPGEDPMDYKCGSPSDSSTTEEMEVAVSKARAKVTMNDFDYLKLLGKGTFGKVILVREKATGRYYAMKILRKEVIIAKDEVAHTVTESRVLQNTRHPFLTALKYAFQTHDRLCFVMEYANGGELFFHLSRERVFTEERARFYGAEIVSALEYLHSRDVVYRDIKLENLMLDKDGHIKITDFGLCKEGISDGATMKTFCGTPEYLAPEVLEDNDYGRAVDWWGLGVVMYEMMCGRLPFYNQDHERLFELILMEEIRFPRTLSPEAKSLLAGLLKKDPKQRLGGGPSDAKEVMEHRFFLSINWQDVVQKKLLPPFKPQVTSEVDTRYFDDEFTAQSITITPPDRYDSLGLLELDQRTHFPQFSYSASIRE
Sequence of Protein kinase C theta type (Homo sapiens) (Q04759 whole entry, looked up): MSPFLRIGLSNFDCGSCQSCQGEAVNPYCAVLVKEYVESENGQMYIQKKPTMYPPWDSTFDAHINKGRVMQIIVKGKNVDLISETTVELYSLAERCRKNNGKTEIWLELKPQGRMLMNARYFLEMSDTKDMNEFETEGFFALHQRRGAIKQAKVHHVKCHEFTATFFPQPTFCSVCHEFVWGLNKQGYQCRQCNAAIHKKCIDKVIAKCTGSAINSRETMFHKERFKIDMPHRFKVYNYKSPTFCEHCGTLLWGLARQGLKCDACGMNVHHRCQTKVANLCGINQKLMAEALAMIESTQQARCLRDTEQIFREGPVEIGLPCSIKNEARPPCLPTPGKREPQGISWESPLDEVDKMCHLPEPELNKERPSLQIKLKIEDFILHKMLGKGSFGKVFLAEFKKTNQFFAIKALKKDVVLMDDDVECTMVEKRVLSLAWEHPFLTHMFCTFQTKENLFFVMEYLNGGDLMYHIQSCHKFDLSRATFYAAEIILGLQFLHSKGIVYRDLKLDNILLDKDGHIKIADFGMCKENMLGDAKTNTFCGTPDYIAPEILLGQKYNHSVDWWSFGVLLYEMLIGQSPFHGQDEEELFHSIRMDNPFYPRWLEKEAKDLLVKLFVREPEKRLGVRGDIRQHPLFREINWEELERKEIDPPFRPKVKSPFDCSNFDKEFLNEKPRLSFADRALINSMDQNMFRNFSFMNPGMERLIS
Sequence of Leukocyte tyrosine kinase receptor (Homo sapiens) (P29376 whole entry): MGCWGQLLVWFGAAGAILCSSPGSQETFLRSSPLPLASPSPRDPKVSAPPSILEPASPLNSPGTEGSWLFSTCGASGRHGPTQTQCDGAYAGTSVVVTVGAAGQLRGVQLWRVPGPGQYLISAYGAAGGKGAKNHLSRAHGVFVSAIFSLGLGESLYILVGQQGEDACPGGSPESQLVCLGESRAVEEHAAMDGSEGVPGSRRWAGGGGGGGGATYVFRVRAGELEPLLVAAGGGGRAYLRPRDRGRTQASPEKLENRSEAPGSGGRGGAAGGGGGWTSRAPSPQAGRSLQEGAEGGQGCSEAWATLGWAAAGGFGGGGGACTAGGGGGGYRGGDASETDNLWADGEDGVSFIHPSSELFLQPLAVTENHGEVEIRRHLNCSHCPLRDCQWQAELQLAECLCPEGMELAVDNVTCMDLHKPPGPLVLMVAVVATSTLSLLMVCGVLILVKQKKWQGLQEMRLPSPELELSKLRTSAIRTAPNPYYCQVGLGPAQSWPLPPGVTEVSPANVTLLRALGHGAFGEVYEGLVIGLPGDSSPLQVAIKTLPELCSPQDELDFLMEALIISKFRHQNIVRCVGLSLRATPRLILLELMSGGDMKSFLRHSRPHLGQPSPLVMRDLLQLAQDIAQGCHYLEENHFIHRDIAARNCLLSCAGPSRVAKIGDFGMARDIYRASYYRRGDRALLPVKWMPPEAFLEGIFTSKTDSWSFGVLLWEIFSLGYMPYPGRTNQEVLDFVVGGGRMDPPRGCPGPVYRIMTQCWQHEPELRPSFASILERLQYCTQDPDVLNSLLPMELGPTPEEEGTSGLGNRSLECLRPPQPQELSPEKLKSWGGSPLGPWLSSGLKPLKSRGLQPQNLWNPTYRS

Structure (SMILES)	residual activity [1] [%]	residual activity [2] [%]	residual activity [3] [%]	residual activity [4] [%]	residual activity (Homo sapiens) [%]	residual activity [5] [%]	residual activity [6] [%]
Cc1cc(-c2cnc(N)c3c(-c4ccc5scnc5c4)csc23)n(C)n1	98.3	95.4	78.5	73.8	86	31	64.3
CNC(=O)c1ccc2c(c1)ncn2-c1ccc(CC(=O)OC(C)(C)C)cc1	104	96.8	96.1	101	101	95	89
CC(C)S(=O)(=O)c1ccc2nccc(Nc3ccc4scnc4c3)c2c1	92.8	89	101	98.3	97.2	78.7	109
